From patent US20140045189A1 (priority 2009, published 2014)
Where two headings read alike, the source gives them in different places.

Assays:
Salmonella Typhimurium = settings: 30 min, TSA-Y, control […]10^9 CFU/ml
Experimental: (§1) Listeria monocytogenes EGDe (1/2a, internal number 2964) is used as a model organism for Gram-positive bacteria and as a DNA quantification standard for real-time PCR. Salmonella enterica serovar Typhimurium (NCTC 12023) is used as a model organism for Gram-negative bacteria and as a DNA quantification standard for real-time PCR. The bacteria are maintained at −80° C. using MicroBank™ technology (Pro-Lab Diagnostics, Richmont Hill, Canada) and are part of the collection of bacterial strains at the Institute of Milk Hygiene, Milk Technology and Food Science, University of Veterinary Medicine, Vienna, Austria. All bacterial strains are grown overnight in tryptone soya broth with 0.6% (w/v) yeast extract (TSB-Y; Oxoid, Hampshire, United Kingdom) at the respective optimal growth temperatures (37° C., L. monocytogenes and 42° C., S. Typhimurium).
(§2) The influence of different MgCl2 concentrations on the viability of Listeria monocytogenes and Salmonella Typhimurium is investigated. The target organisms are incubated for 30 min with 3 different concentrations of MgCl2 (1 M, 2 M and 3 M) and at 3 different temperatures (35° C., 38° C. and 45° C.) and the CFUs on TSA-Y agar plates after the treatment are compared with the control sample.

Listeria monocytogenes = settings: 30 min, TSA-Y, control 2.78×10^9 CFU/ml
Experimental: as §1, §2

## [Cl-].[Cl-].[Mg+2] [MgCl2, magnesium chloride]
Salmonella Typhimurium; 1 M MgCl2, 35° C.
  CFU/ml of S. Typhimurium after treatment: 1.15×10^9 CFU/ml
Salmonella Typhimurium; 1 M MgCl2, 38° C.
  CFU/ml of S. Typhimurium after treatment: 8.33×10^8 CFU/ml
Salmonella Typhimurium; 1 M MgCl2, 45° C.
  CFU/ml of S. Typhimurium after treatment: 4.1×10^8 CFU/ml
Salmonella Typhimurium; 2 M MgCl2, 35° C.
  CFU/ml of S. Typhimurium after treatment: 2.3×10^8 CFU/ml
Salmonella Typhimurium; 2 M MgCl2, 38° C.
  CFU/ml of S. Typhimurium after treatment: 1.35×10^8 CFU/ml
Salmonella Typhimurium; 3 M MgCl2, 35° C.
  CFU/ml of S. Typhimurium after treatment: 5.75×10^7 CFU/ml
Salmonella Typhimurium; 3 M MgCl2, 38° C.
  CFU/ml of S. Typhimurium after treatment: 2.0×10^7 CFU/ml
Listeria monocytogenes; 1 M MgCl2, 35° C.
  CFU/ml of L. monocytogenes after treatment: 3.86×10^9 CFU/ml
Listeria monocytogenes; 1 M MgCl2, 38° C.
  CFU/ml of L. monocytogenes after treatment: 4.06×10^9 CFU/ml
Listeria monocytogenes; 1 M MgCl2, 45° C.
  CFU/ml of L. monocytogenes after treatment: 4.39×10^9 CFU/ml
Listeria monocytogenes; 2 M MgCl2, 35° C.
  CFU/ml of L. monocytogenes after treatment: 3.10×10^9 CFU/ml
Listeria monocytogenes; 2 M MgCl2, 38° C.
  CFU/ml of L. monocytogenes after treatment: 3.64×10^9 CFU/ml
Listeria monocytogenes; 2 M MgCl2, 45° C.
  CFU/ml of L. monocytogenes after treatment: 1.68×10^9 CFU/ml
Listeria monocytogenes; 3 M MgCl2, 35° C.
  CFU/ml of L. monocytogenes after treatment: 1.76×10^9 CFU/ml
Listeria monocytogenes; 3 M MgCl2, 38° C.
  CFU/ml of L. monocytogenes after treatment: 8.5×10^8 CFU/ml
Listeria monocytogenes; 3 M MgCl2, 45° C.
  CFU/ml of L. monocytogenes after treatment: 1.5×10^8 CFU/ml
